From PMC6372667 (Experimental & Molecular Medicine, 2019) come the findings set out here.

Data set [1] has as its target T1, Electric eel AChE (Electrophorus electricus, UniProt O42275).
T1 construct: purchased Sigma-Aldrich Co
As to the kind of experiment: In vitro cholinesterase enzyme assay (Ellman), AChE. Format: biochemical.

The next data set has as its target T2, horse serum BChE (Equus caballus, UniProt P81908).
T2 construct: horse serum BChE (EC 3.1.1.8); purchased Sigma-Aldrich Co; host or cells: horse serum
As to the kind of experiment: In vitro cholinesterase enzyme assay (Ellman), BChE. Format: biochemical. The source says: BACE1 (human recombinant β-secretase) ([…]) and the BACE1 FRET (fluorescence resonance energy transfer) assay kit Red were purchased from ThermoFisher Scientific (P2985; Waltham, MA, USA). […] For the cell culture experiment, Dulbecco’s modified Eagle’s medium (DMEM), Opti-MEM, fetal bovine serum (FBS), and penicillin/streptomycin were obtained from Capricorn Scientific (Ebsdorfergrund, Germany). β-secretase inhibitor III (β-SI) was purchased from Calbiochem (Darmstadt, Germany). The protease inhibitor mixture (a mixture of AEBSF, pepstatin A, E-64, bestain, leupeptin, and aprotinin) was purchased from Sigma-Aldrich (St. Louis, MO, USA). Enzyme-linked immunosorbent assay (ELISA) kits for Aβ40 and Aβ42 were obtained from IBL (Kunma, Japan). All chemicals and solvents used were reagent grade, purchased from commercial sources, and used as received.
The inhibitory activities of pterosin derivatives against cholinesterases were measured using the method developed by Ellman et al.[32]. The reaction mixture contained 140 μL of sodium phosphate buffer (pH 8.0), 20 μL of test sample solution (final concentration of the compound 100 μM), and 20 μL of AChE or BChE solution, mixed and incubated for 15 min at room temperature. […] The reactions were initiated following the addition of 10 μL of DTNB and 10 μL of acetyl thiocholine iodide for the AChE assay or butyryl thiocholine chloride for the BChE assay in 96-well microplates, which were incubated for 15 min.

Data set [2] has as its target T1, Electric eel AChE. In words: Kinetic analysis of AChE inhibition (Dixon and Lineweaver−Burk plots). In kind it is biochemical. As to conditions: for Inhibition type AChE: Dixon and Lineweaver−Burk plots. On the procedure:
The Ki was determined by interpretation of the Dixon plot, with the value of the x-axis intercept taken as −Ki.
Dixon plots for AChE inhibition by pterosin derivatives. (2S,3R)-Pterosin C (A), (2R,3R)-pterosin C (B), and (2R)-pterosin B (C) were tested in the presence of substrate concentrations of 0.1 mM (●), 0.3 mM (○), and 0.6 mM (▼). Lineweaver-Burk plots for AChE inhibition were generated with inhibitor concentrations of 0 µM (Δ), 4 µM (▼), 20 µM (○), and 100 µM (●) for (2S,3R)-pterosin C (D) and (2R,3R)-pterosin C (E); and 0 µM (Δ), 2 µM (▼), 10 µM (○), and 50 µM (●) for (2R)-pterosin B (F).
Dixon plots for AChE inhibition by pteroside derivatives. (2R)-pteroside B (A), (2R,3R)-pteroside C (B), and (3S)-pteroside D (C) were tested in the presence of substrate concentrations of 0.1 mM (●), 0.3 mM (○), and 0.6 mM (▼). Lineweaver-Burk plots for AChE inhibition were generated with inhibitor concentrations of 0 µM (Δ), 0.8 µM (▼), 4 µM (○), and 20 µM (●) for (2R)-pteroside B (D), (2R,3R)-pteroside C (E), and (3S)-pteroside D (F).

Data set [3] concerns Mouse neuroblastoma N2a cells stably overexpressing the human APP Swedish mutation (APPswe). In words: Aβ40/Aβ42 sandwich ELISA of conditioned media of APPswe neuroblastoma cells. In kind it is cell-based. On the procedure: Mouse neuroblastoma N2a cells stably overexpressing the human APP Swedish mutation (APPswe) were kindly provided by Dr. Takeshi Iwatsubo (The University of Tokyo). […] To analyze the effect of (2R)-pterosin B or (2R,3R)-pteroside C on APP metabolites, APPswe-containing neuroblastoma cells were cultured up to confluency in DMEM that contained 10 mM butyric acid to drive protein expression in the presence of 12, 60, 250, and 500 μM of (2R)-pterosin B or (2R,3R)-pteroside C for 24 h. β-SI (10 µM) was used as a positive control. The negative control included cells cultured in the absence of test compounds. […] Conditioned medium was collected in 0.5 mM phenylmethylsulfonyl fluoride and subjected to ELISA for the 40-residue peptide Aβ (1–40) (Aβ40) or the 42-residue Aβ (1–42) (Aβ42).
Aβ40 and Aβ42 ELISA was performed according to the manufacturer’s instructions. The assay was conducted in a microplate coated with anti-human Aβ35-40 mouse IgG (1A10) or anti-human Aβ38-42 mouse IgG (44A3), respectively. The microplate was added with 100 μL conditioned media, incubated overnight at 4 °C, and then washed with washing buffer. Horseradish peroxidase-conjugated anti-human Aβ11-28 mouse IgG (82E1) was added into each well, incubated at 4 °C for 1 h, and washed with washing buffer. 3,3′,5,5′-Tetramethylbenzidine as a chromogenic substrate was added to each well and incubated for 30 min. The reaction was stopped by the addition of 100 μL stop solution, and the absorbance at 450 nm was measured using a model 680 microplate reader (Bio-Rad, Hercules, CA).
(An ELISA detects its analyte on a solid surface through an enzyme-linked reagent.)

A further data set deals with C6 rat glial cells. In words: MTT cytotoxicity assay, C6. The settings on record: 24 h. In kind it is cell-based. On the procedure: (§1) Cytotoxicity was assessed using the MTT assay. Briefly, the cells were seeded into a 96-well plate at a density of 1×10^5 cells per well in 100 µL of corresponding media and incubated at 37 °C in an incubator under 5% CO2 tension for 24 h. The culture media were then replaced with 100 µL of fresh serum-free media in the presence of varied concentrations of pterosin derivatives, and cells were incubated for an additional 24 h. The control was treated with an equal amount of DMSO present in the assay for a 5 mM concentration. Then, 100 µL of MTT solution (0.5 mg/mL in Phosphate Buffered Saline (PBS)) was added to each culture. To measure the proportion of surviving cells, the media were replaced with 100 µL of DMSO 2 h after the administration of MTT solution. The absorbance was measured at 570 nm using a spectrophotometric plate reader (Molecular Devices, Sunnyvale, CA, USA).
(Formazan colour is commonly taken as a measure of viable cells.)

Data set [4] relates to NIH3T3 mouse embryo fibroblasts. In words: MTT cytotoxicity assay, NIH3T3. In kind it is cell-based. As to conditions: 24 h. The protocol: as §1
The test system of the next data set is B16F10 mouse melanoma. In words: MTT cytotoxicity assay, B16F10. In kind it is cell-based. As to conditions: 24 h. On the procedure:
as §1

Data set [5] deals with SH-SY5Y, C6, NIH3T3 and B16F10 cell lines. As to the kind of experiment: MTT cytotoxicity assay, all cell lines tested. Format: cell-based. The protocol:
as §1

A word on the IC50: it is the concentration that inhibits the measured activity by half. The Ki is a measure of affinity in units of concentration, obtained from inhibition or displacement.

Read-outs that look alike come from different tables or passages of the source.

T1 sequence (O42275 24-633): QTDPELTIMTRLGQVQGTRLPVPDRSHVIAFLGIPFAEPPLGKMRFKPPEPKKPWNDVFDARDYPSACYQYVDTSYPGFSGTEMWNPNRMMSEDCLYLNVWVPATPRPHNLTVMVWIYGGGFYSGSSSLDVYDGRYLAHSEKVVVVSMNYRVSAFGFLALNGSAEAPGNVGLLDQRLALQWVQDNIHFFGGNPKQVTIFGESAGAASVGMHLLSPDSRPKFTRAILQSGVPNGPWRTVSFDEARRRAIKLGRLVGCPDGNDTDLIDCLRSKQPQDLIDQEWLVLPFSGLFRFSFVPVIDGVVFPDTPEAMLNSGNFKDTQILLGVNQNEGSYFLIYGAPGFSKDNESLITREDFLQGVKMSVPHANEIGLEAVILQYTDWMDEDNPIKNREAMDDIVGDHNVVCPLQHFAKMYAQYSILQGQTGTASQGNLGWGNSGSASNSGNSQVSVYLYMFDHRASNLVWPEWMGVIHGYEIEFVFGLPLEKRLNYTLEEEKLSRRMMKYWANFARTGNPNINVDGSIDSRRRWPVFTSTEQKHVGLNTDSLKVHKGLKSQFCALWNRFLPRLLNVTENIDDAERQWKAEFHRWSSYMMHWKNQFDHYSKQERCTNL
T2 sequence (P81908 whole entry): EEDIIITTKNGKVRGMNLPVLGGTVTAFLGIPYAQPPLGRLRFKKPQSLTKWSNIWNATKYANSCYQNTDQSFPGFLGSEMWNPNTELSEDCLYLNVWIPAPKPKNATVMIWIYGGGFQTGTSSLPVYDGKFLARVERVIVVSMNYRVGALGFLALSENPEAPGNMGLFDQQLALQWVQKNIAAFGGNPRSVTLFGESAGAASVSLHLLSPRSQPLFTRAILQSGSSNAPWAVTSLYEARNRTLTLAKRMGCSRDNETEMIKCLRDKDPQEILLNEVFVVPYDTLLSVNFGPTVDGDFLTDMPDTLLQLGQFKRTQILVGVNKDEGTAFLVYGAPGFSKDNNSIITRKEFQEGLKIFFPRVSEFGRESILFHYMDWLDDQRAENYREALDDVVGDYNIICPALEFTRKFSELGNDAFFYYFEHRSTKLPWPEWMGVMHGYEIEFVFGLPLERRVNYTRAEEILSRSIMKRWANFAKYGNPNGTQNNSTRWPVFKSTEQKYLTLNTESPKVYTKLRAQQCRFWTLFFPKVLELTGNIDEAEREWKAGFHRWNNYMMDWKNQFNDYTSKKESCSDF

With `Cc1cc2c(c(C)c1CCO)C(=O)[C@H](C)C2` [(2R)-Pterosin B, (2R)-pterosin B], the IC50 was 16.2 ± 1 µM against Electric eel AChE [1] and 48.1 ± 0.59 µM on horse serum BChE. Moreover, on Electric eel AChE [1] (ratio of IC50), the “AChE-inhibitory activity fold lower than berberine” value is on record as “approximately 40 fold”. The “BChE-inhibitory activity fold lower than berberine” value on horse serum BChE (ratio of IC50) is around 15 fold. At Electric eel AChE [2], this molecule gave a Ki of 12.1 µM. Also, the “Inhibition type AChE” value on Electric eel AChE [2] is recorded as “Mixed-type”. Besides, the “Secretion of Aβ peptides, effect” value in data set [3] (500 μM) is “significantly decreased”. Besides, the “Secreted Aβ40 peptides, effect” value in data set [3] (500 µM, 24 h) is given as “significantly decreased”. Moreover, the “Reduction of Aβ40 peptide secreted into media” value in data set [3] (500 μM, 24 h, P < 0.01) is “up to 50%”. Besides, the “LD50 Based on MTT Assay, C6” value with C6 rat glial cells is >5,000 µM. Besides, the “LD50 Based on MTT Assay, NIH3T3” value in data set [4] is >5,000 µM. In addition, the “LD50 Based on MTT Assay, B16F10” value in the data set on B16F10 mouse melanoma is reported as >5,000 µM. Besides, in data set [5], the “LD50, cell lines tested” value is “above 5 mM”.
As to `Cc1cc2c(c(C)c1CCOC1OC(CO)C(O)C(O)C1O)C(=O)C(C)C2O` [(2R,3R)-Pteroside C, (2R,3R)-pteroside C], the IC50 on Electric eel AChE [1] (mean ± S.D. of three experiments, read-out: IC50 AChE) was found to be 3.77 ± 0.38 µM; on horse serum BChE (mean ± S.D. of three experiments, read-out: IC50 BChE), 5.29 ± 0.82 µM. The “Inhibition type AChE” value at Electric eel AChE [2] is listed as “Mixed-type”. For the same molecule, the Ki at Electric eel AChE [2] (determined by Dixon plot, read-out: Ki AChE) turned out to be 8.13 µM. In data set [3] (500 μM), the “Secretion of Aβ peptides, effect” value is “significantly decreased”. In addition, the “Secreted Aβ42 peptide, effect” value in data set [3] (500 µM, 24 h, P < 0.05) is on record as “significantly decreased”. For the same molecule, the “LD50 Based on MTT Assay, C6” value in the data set on C6 rat glial cells is >5,000 µM. For the same molecule, the “LD50 Based on MTT Assay, NIH3T3” value in data set [4] was >5,000 µM. Besides, the “LD50 Based on MTT Assay, B16F10” value in the data set on B16F10 mouse melanoma was >5,000 µM. Moreover, in data set [5], the “LD50, cell lines tested” value is “above 5 mM”.
